What was measured:
[1] = toxicity / lethal concentration LC50
[2] = in vivo

SMILES | risk for human toxicity ([1]; concluded from available results of mammalian HFC (hydrofluorocarbon) tests) | toxicity (in words) [2] | LC50 ([1]; in vivo)
FC(F)(F)COC(F)(F)F [2,2,2-trifluoroethyl-trifluoromethyl ether] | low risk for human toxicity | – | –
O=C(C(F)(F)F)C(F)(C(F)(F)F)C(F)(F)F [C5-ketone, 1,1,1,3,4,4,4-heptafluoro-3-(trifluoromethyl)butan-2-one] | – | practically non-toxic | –
O=C(C(F)(F)C(F)(F)F)C(F)(C(F)(F)F)C(F)(F)F [C6-ketone, 1,1,1,2,4,4,5,5,5-Nonafluoro-2-(trifluoromethyl)pentan-3-one] | – | non-toxic | about 100,000 ppm

Reference: US9172221B2, “Converter building” (ABB Technology AG, priority 2011, dated 2015)
